From US9259390B2, “Parenteral and oral formulations of benzimidazoles” (priority 2003, dated 2016)
≈ marks a conversion by molar mass, not a printed value. Where “and” joins values, the source holds several entries; their conditions need not be identical. Identical values can stand only once.

Assays:
[1] = In vitro MZ release, USP Dissolution Apparatus 2; assay type: physicochemical; conditions: for Cumulative MZ Released: individual determinations
Method: All four formulations were filled manually with a syringe into a hydrophilic airfill soft gelatin capsule (R. P. Scherer, Basking Ridge, N.J.) and the resulting hole was sealed thermally. […] C. Cremphor RH 40 was used to maintain the sink condition of the releasing medium. The release medium was constantly stirred at 50 rpm by a Teflon-coated dissolution paddle. Serial release samples were withdrawn and filtered through a 0.45 μm Millipore filter and analyzed by the HPLC assay.

[2] = test system: SRB1; experiment: Cell growth inhibition in skin cancer cells; assay type: cell-based
[3] = test system: A375; experiment: Cell growth inhibition in skin cancer cells; assay type: cell-based; conditions: Homo sapiens, A-375
[4] = test system: 2237; experiment: Cell growth inhibition in skin cancer cells; assay type: cell-based
[5] = test system: H1299 cells; experiment: Cell growth inhibition in NSCLC cells; assay type: cell-based; conditions: Homo sapiens, NCI-H1299, NSCLC cells; MZ from two microemulsion formulations
[6] = 33 days
[7] = physchem

COC(=O)Nc1nc2ccc(C(=O)c3ccccc3)cc2[nH]1 [MZ, methyl 5-benzoylbenzimidazole-2-carbamate]
Cumulative MZ Released, Mean ([1]; 10 min): 0.04 % Dose
Cumulative MZ Released ([1]; 10 min, listed as MZ powder): 0.01 % Dose and 0.012 % Dose and 0.083 % Dose
Cumulative MZ Released, Mean ([1]; 20 min): 0.15 % Dose
Cumulative MZ Released ([1]; 20 min, listed as MZ powder): 0.035 % Dose and 0.22 % Dose and 0.18 % Dose
Cumulative MZ Released, Mean ([1]; 30 min): 0.22 % Dose
Cumulative MZ Released ([1]; 30 min, listed as MZ powder): 0.14 % Dose and 0.25 % Dose and 0.28 % Dose
Cumulative MZ Released, Mean ([1]; 40 min): 0.29 % Dose
Cumulative MZ Released ([1]; 40 min, listed as MZ powder): 0.22 % Dose and 0.23 % Dose and 0.41 % Dose
Cumulative MZ Released, Mean ([1]; 50 min): 0.29 % Dose
Cumulative MZ Released ([1]; 50 min, listed as MZ powder): 0.2 % Dose and 0.31 % Dose and 0.35 % Dose
Cumulative MZ Released ([1]; 60 min, listed as MZ powder): 0.27 % Dose (2×) and 0.32 % Dose
Cumulative MZ Released, Mean ([1]; 60 min, listed as MZ powder): 0.29 % Dose
Cumulative MZ Released, Mean ([1]; 60 min, listed as unformulated drug powder): 0.3 % Dose
IC50 [2]: 0.091 µg/mL (≈ 0.308 µM)
IC50 [3]: 0.129 µg/mL (≈ 0.437 µM)
IC50 [4]: 0.171 µg/mL (≈ 0.579 µM)
IC50 [5]: 0.008 µg/mL (≈ 0.0271 µM)
pH-stability [6]: sufficiently stable
logP [7]: 2.51
